# Reference: patent EP0377642B1, “HERBICIDES FOR WEED CONTROL IN RICE” (E.I. DU PONT DE NEMOURS AND COMPANY, priority 1987, dated 1989)
# How the values were obtained:
# Type in all cases: in vivo
# FIMBRISTYLIS MILIACEA = assay: Herbicidal efficacy alone and with 2,4-D in Thailand (Table 3); conditions: 6 weeks after application
# From the text: (§1) Methyl 2-[[[[(4-methoxy-6-methyl-1,3,5-triazin-2-yl)amino]carbonyl]amino]sulfonyl]benzoate (Compound 1) and mixtures thereof with other compounds were applied as a spray (using a hand sprayer) to rice (either transplanted or direct seeded) in several rice growing areas in Southeast Asia and in the U.S. Tables 1-28 contain the results of these tests and clearly exemplify the utility of this invention. The details of each application are included in the appropriate table. [drawing 2]
# rice [1] = assay: Effects on rice growth in Thailand, phytotoxicity (Table 4); conditions: scale 0-10
# From the text: as §1
# Echinochloa crus-galli = assay: Herbicidal efficacy in Indonesia, applied 2 weeks after transplanting (Table 6)
# From the text: as §1
# Monochoria vaginalis = assay: as above
# From the text: as §1
# Salvinia molesta = assay: as above
# From the text: as §1
# Scirpus juncoides = assay: as above
# From the text: as §1
# rice [2] = assay: as above; conditions: 2 weeks after application
# From the text: as §1
# transplanted rice = assay: Crop tolerance of transplanted rice (Table 7); conditions: rating 0-10
# From the text: as §1
# Cyperus difformis [3] = assay: Herbicidal efficacy alone and with 2,4-D in Malaysia, applied 30 days after seeding (Table 8); conditions: 22 days after treatment
# From the text: as §1
# Scirpus grossus = assay: as above; conditions: 22 days after treatment
# From the text: as §1
# Sesbania exaltata = assay: Herbicidal efficacy in United States (Table 16); conditions: 57 days after application
# From the text: as §1
# Cyperus difformis [4] = assay: Herbicidal efficacy with 2,4-D in Thailand (Table 17); conditions: 4 GAI/HA; 14 days after treatment
# From the text: as §1
# Ludwigia linifolia [5] = assay: as above; conditions: 4 GAI/HA; 14 days after treatment
# From the text: as §1
# MC = assay: as above; conditions: 4 GAI/HA; 14 days after treatment
# From the text: as §1
# Sphenoclea zeylanica = assay: as above; conditions: 4 GAI/HA; 14 days after treatment
# From the text: as §1
# rice [6] = assay: as above; conditions: 4 GAI/HA; 14 days after treatment
# From the text: as §1
# weeds = assay: Greenhouse test of Compound 1 and Compound 2, herbicidal efficacy (Table 26); conditions: rated 24 days after treatment; for % CONTROL OR INJURY AT: Alisma triviale; for % CONTROL OR INJURY AP: Alternanthera philoxeroides; for % CONTROL OR INJURY CD: Cyperus difformis; for % CONTROL OR INJURY SR: Sagittaria rigida
# From the text: as §1
# Ludwigia linifolia [7] = assay: Herbicidal efficacy with Bensulfuron methyl and 2,4-D in Thailand (Table 18); conditions: 13 days after treatment
# How it was run: (§2)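 Crop effects and weed control are scored after hand-sprayed application to field rice. The sulfonylurea, applied on its own or in combination, went onto transplanted or direct-seeded plantings at U.S. and Southeast Asian locations.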
# Ludwigia linifolia [8] = assay: Herbicidal efficacy with Bensulfuron methyl and 2,4-D in Thailand (Table 19); conditions: 13 days after treatment
# How it was run: as §2
# [9] = 3 GAI/HA, 2 weeks after application
# [10] = 3 GAI/HA, 5 weeks after application
# [11] = 3 GAI/HA, 7 weeks after application
# [12] = 4 GAI/HA, 2 weeks after application
# [13] = 4 GAI/HA, 5 weeks after application
# [14] = 4 GAI/HA, 7 weeks after application
# [15] = 6 GAI/HA, 2 weeks after application
# [16] = 6 GAI/HA, 5 weeks after application
# [17] = 6 GAI/HA, 7 weeks after application
# [18] = 8 GAI/HA, 2 weeks after application
# [19] = 8 GAI/HA, 5 weeks after application
# [20] = 8 GAI/HA, 7 weeks after application
structure (smiles),measurement,setting,value
"COC(=O)c1ccccc1S(=O)(=O)NC(=O)Nc1nc(C)nc(OC)n1 [Compound 1, Methyl 2-[[[[(4-methoxy-6-methyl-1,3,5-triazin-2-yl)amino]carbonyl]amino]sulfonyl]benzoate]",FIMBRISTYLIS MILIACEA CONTROL,"FIMBRISTYLIS MILIACEA; applied 7 DAS, 3 GAI/HA",53%
same,FIMBRISTYLIS MILIACEA CONTROL,"FIMBRISTYLIS MILIACEA; applied 7 DAS, 6 GAI/HA",73%
same,FIMBRISTYLIS MILIACEA CONTROL,"FIMBRISTYLIS MILIACEA; applied 14 DAS, 3 GAI/HA",20%
same,FIMBRISTYLIS MILIACEA CONTROL,"FIMBRISTYLIS MILIACEA; applied 14 DAS, 6 GAI/HA",40%
same,FIMBRISTYLIS MILIACEA CONTROL,"FIMBRISTYLIS MILIACEA; applied 21 DAS, 3 GAI/HA",0%
same,FIMBRISTYLIS MILIACEA CONTROL,"FIMBRISTYLIS MILIACEA; applied 21 DAS, 6 GAI/HA",0%
same,FIMBRISTYLIS MILIACEA CONTROL,"FIMBRISTYLIS MILIACEA; applied 28 DAS, 3 GAI/HA",0%
same,FIMBRISTYLIS MILIACEA CONTROL,"FIMBRISTYLIS MILIACEA; applied 28 DAS, 6 GAI/HA",0%
same,PHYTOTOXICITY,"rice [1]; applied 7 DAS, 3 GAI/HA",1.67
same,PHYTOTOXICITY,"rice [1]; applied 7 DAS, 6 GAI/HA",1.67
same,PHYTOTOXICITY,"rice [1]; applied 14 DAS, 3 GAI/HA",1.0
same,PHYTOTOXICITY,"rice [1]; applied 14 DAS, 6 GAI/HA",1.0
same,PHYTOTOXICITY,"rice [1]; applied 21 DAS, 3 GAI/HA",0.67
same,PHYTOTOXICITY,"rice [1]; applied 21 DAS, 6 GAI/HA",1.0
same,PHYTOTOXICITY,"rice [1]; applied 28 DAS, 3 GAI/HA",0
same,PHYTOTOXICITY,"rice [1]; applied 28 DAS, 6 GAI/HA",0
same,% CONTROL EC,Echinochloa crus-galli; [9],20%
same,% CONTROL EC,Echinochloa crus-galli; [10],30%
same,% CONTROL EC,Echinochloa crus-galli; [11],0%
same,% CONTROL EC,Echinochloa crus-galli; [12],20%
same,% CONTROL EC,Echinochloa crus-galli; [13],30%
same,% CONTROL EC,Echinochloa crus-galli; [14],0%
same,% CONTROL EC,Echinochloa crus-galli; [15],20%
same,% CONTROL EC,Echinochloa crus-galli; [16],30%
same,% CONTROL EC,Echinochloa crus-galli; [17],0%
same,% CONTROL EC,Echinochloa crus-galli; [18],20%
same,% CONTROL EC,Echinochloa crus-galli; [19],30%
same,% CONTROL EC,Echinochloa crus-galli; [20],0%
same,% CONTROL MV,Monochoria vaginalis; [9],100%
same,% CONTROL MV,Monochoria vaginalis; [10],100%
same,% CONTROL MV,Monochoria vaginalis; [11],100%
same,% CONTROL MV,Monochoria vaginalis; [12],90%
same,% CONTROL MV,Monochoria vaginalis; [13],100%
same,% CONTROL MV,Monochoria vaginalis; [14],100%
same,% CONTROL MV,Monochoria vaginalis; [15],100%
same,% CONTROL MV,Monochoria vaginalis; [16],100%
same,% CONTROL MV,Monochoria vaginalis; [17],100%
same,% CONTROL MV,Monochoria vaginalis; [18],100%
same,% CONTROL MV,Monochoria vaginalis; [19],100%
same,% CONTROL MV,Monochoria vaginalis; [20],100%
same,% CONTROL SM,Salvinia molesta; [9],30%
same,% CONTROL SM,Salvinia molesta; [10],70%
same,% CONTROL SM,Salvinia molesta; [11],80%
same,% CONTROL SM,Salvinia molesta; [12],40%
same,% CONTROL SM,Salvinia molesta; [13],70%
same,% CONTROL SM,Salvinia molesta; [14],80%
same,% CONTROL SM,Salvinia molesta; [15],30%
same,% CONTROL SM,Salvinia molesta; [16],90%
same,% CONTROL SM,Salvinia molesta; [17],90%
same,% CONTROL SM,Salvinia molesta; [18],40%
same,% CONTROL SM,Salvinia molesta; [19],80%
same,% CONTROL SM,Salvinia molesta; [20],90%
same,% CONTROL SJ,Scirpus juncoides; [9],60%
same,% CONTROL SJ,Scirpus juncoides; [10],90%
same,% CONTROL SJ,Scirpus juncoides; [11],70%
same,% CONTROL SJ,Scirpus juncoides; [12],60%
same,% CONTROL SJ,Scirpus juncoides; [13],100%
same,% CONTROL SJ,Scirpus juncoides; [14],70%
same,% CONTROL SJ,Scirpus juncoides; [15],90%
same,% CONTROL SJ,Scirpus juncoides; [16],100%
same,% CONTROL SJ,Scirpus juncoides; [17],80%
same,% CONTROL SJ,Scirpus juncoides; [18],80%
same,% CONTROL SJ,Scirpus juncoides; [19],100%
same,% CONTROL SJ,Scirpus juncoides; [20],80%
same,% CONTROL RICE,rice [2]; 3 GAI/HA,10%
same,% CONTROL RICE,rice [2]; 4 GAI/HA,10%
same,% CONTROL RICE,rice [2]; 6 GAI/HA,10%
same,% CONTROL RICE,rice [2]; 8 GAI/HA,10%
same,CROP TOLERANCE,"transplanted rice; 3 GAI/HA, 1 WAA",0
same,CROP TOLERANCE,"transplanted rice; 3 GAI/HA, 2WAA",0
same,CROP TOLERANCE,"transplanted rice; 3 GAI/HA, 4WAA",0
same,CROP TOLERANCE,"transplanted rice; 3 GAI/HA, 6WAA",0
same,CROP TOLERANCE,"transplanted rice; 4 GAI/HA, 1 WAA",0
same,CROP TOLERANCE,"transplanted rice; 4 GAI/HA, 2WAA",0
same,CROP TOLERANCE,"transplanted rice; 4 GAI/HA, 4WAA",0
same,CROP TOLERANCE,"transplanted rice; 4 GAI/HA, 6WAA",0
same,CROP TOLERANCE,"transplanted rice; 6 GAI/HA, 1 WAA",1
same,CROP TOLERANCE,"transplanted rice; 6 GAI/HA, 2WAA",0
same,CROP TOLERANCE,"transplanted rice; 6 GAI/HA, 4WAA",0
same,CROP TOLERANCE,"transplanted rice; 6 GAI/HA, 6WAA",0
same,CROP TOLERANCE,"transplanted rice; 8 GAI/HA, 1 WAA",1
same,CROP TOLERANCE,"transplanted rice; 8 GAI/HA, 2WAA",1
same,CROP TOLERANCE,"transplanted rice; 8 GAI/HA, 4WAA",0
same,CROP TOLERANCE,"transplanted rice; 8 GAI/HA, 6WAA",0
same,% CONTROL CD,Cyperus difformis [3]; 1 GAI/HA,0%
same,% CONTROL CD,Cyperus difformis [3]; 2 GAI/HA,100%
same,% CONTROL CD,Cyperus difformis [3]; 3 GAI/HA,95%
same,% CONTROL CD,Cyperus difformis [3]; 4 GAI/HA,100%
same,% CONTROL CD,Cyperus difformis [3]; 5 GAI/HA,100%
same,% CONTROL SG,Scirpus grossus; 1 GAI/HA,80%
same,% CONTROL SG,Scirpus grossus; 2 GAI/HA,100%
same,% CONTROL SG,Scirpus grossus; 3 GAI/HA,95%
same,% CONTROL SG,Scirpus grossus; 4 GAI/HA,95%
same,% CONTROL SG,Scirpus grossus; 5 GAI/HA,100%
same,% CONTROL OR INJURY SE,Sesbania exaltata; 7 GAI/HA,97%
same,% CONTROL OR INJURY SE,Sesbania exaltata; 14 GAI/HA,98%
same,% CONTROL OR INJURY SE,Sesbania exaltata; 21 GAI/HA,98%
same,% CONTROL OR INJURY CD,Cyperus difformis [4],100%
same,% CONTROL OR INJURY LL,Ludwigia linifolia [5],87%
same,% CONTROL OR INJURY MC,MC,100%
same,% CONTROL OR INJURY SZ,Sphenoclea zeylanica,100%
same,% CONTROL OR INJURY RICE,rice [6],16.6%
same,% CONTROL OR INJURY AT,weeds; rate 1 g ai/ha,80%
same,% CONTROL OR INJURY AT,weeds; rate 2 g ai/ha,95%
same,% CONTROL OR INJURY AT,weeds; rate 4 g ai/ha,95%
same,% CONTROL OR INJURY AT,weeds; rate 8 g ai/ha,95%
same,% CONTROL OR INJURY AP,weeds; rate 1 g ai/ha,0%
same,% CONTROL OR INJURY AP,weeds; rate 2 g ai/ha,0%
same,% CONTROL OR INJURY AP,weeds; rate 4 g ai/ha,60%
same,% CONTROL OR INJURY AP,weeds; rate 8 g ai/ha,70%
same,% CONTROL OR INJURY CD,weeds; rate 1 g ai/ha,60%
same,% CONTROL OR INJURY CD,weeds; rate 2 g ai/ha,60%
same,% CONTROL OR INJURY CD,weeds; rate 4 g ai/ha,80%
same,% CONTROL OR INJURY CD,weeds; rate 8 g ai/ha,100%
same,% CONTROL OR INJURY SR,weeds; rate 1 g ai/ha,90%
same,% CONTROL OR INJURY SR,weeds; rate 2 g ai/ha,95%
same,% CONTROL OR INJURY SR,weeds; rate 4 g ai/ha,95%
same,% CONTROL OR INJURY SR,weeds; rate 8 g ai/ha,95%
"COC(=O)c1ccccc1CS(=O)(=O)NC(=O)Nc1nc(OC)cc(OC)n1 [Bensulfuron methyl, methyl 2-[[[[[(4,6-dimethoxy-2-pyrimidinyl)amino]carbonyl]amino]sulfonyl]methyl]benzoate]",% CONTROL OR INJURY LL,Ludwigia linifolia [7]; 10 GAI/HA,100%
same,% CONTROL OR INJURY LL,Ludwigia linifolia [7]; 15 GAI/HA,100%
same,% CONTROL OR INJURY LL,Ludwigia linifolia [7]; 20 GAI/HA,100%
same,% CONTROL OR INJURY LL,Ludwigia linifolia [8]; 10 GAI/HA,100%
same,% CONTROL OR INJURY LL,Ludwigia linifolia [8]; 15 GAI/HA,100%
same,% CONTROL OR INJURY LL,Ludwigia linifolia [8]; 20 GAI/HA,100%
